According to paper PMC7056829, “Reversal Effect of ALK Inhibitor NVP-TAE684 on ABCG2-Overexpressing Cancer Cells” (Frontiers in Oncology, 2020):

How the values were obtained:
[1] = biological target: T1, ABCG2 (Homo sapiens, UniProt Q9UNQ0); test: ATPase stimulation in ABCG2-overexpressing membrane vesicles; format: biochemical; set-up: ABCG2 membrane vesicles that overexpressed ABCG2
T1 sequence (Q9UNQ0 1-655): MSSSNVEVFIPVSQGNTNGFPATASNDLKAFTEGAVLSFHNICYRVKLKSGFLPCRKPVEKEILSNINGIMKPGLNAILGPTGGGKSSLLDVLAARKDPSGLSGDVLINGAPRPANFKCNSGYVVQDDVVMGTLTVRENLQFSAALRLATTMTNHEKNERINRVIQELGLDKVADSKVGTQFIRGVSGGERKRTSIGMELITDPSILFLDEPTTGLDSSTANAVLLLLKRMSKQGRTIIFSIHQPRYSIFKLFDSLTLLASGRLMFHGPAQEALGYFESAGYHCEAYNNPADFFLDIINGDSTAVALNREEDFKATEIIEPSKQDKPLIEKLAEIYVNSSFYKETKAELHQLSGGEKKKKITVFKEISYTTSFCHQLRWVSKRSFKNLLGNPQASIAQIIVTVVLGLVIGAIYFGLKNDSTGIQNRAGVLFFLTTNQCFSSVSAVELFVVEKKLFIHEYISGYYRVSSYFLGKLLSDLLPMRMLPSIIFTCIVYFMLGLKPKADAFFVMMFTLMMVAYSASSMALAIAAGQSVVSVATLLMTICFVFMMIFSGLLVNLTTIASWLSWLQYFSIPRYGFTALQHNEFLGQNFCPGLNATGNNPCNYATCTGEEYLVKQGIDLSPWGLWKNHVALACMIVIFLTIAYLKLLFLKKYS

[2] = biological target: T1, ABCG2

Row | Compound | EC50 [1] | [3H]-mitoxantrone accumulation and efflux in NCI-H460/MX20 versus parental NCI-H [2]
1 | COc1cc(N2CCC(N3CCN(C)CC3)CC2)ccc1Nc1ncc(Cl)c(Nc2ccccc2S(=O)(=O)C(C)C)n1 [NVP-TAE684] | 91 nM | –
2 | O=C1c2c(O)ccc(O)c2C(=O)c2c(NCCNCCO)ccc(NCCNCCO)c21 [Mitoxantrone] | – | NVP-TAE684 significantly reduced the extrusion of [^3H]-mitoxantrone in NCI-H460/MX20 cells
